Data reported in US11773086B2, “Fungal modulators” (TRUSTEES OF BOSTON UNIVERSITY, priority 2020, dated 2023).

What was measured:
MDR1 (ABCB1) = biological target: T1, MDR1 (ABCB1) (Homo sapiens, UniProt P08183); experiment: Rhodamine 6G accumulation in MDR1-overexpressing HEK293 cells (flow cytometry); format: cell-based, mammalian
T1 construct: expressed in transfected cells; host or cells: HEK293
Description: P-gp overexpressing HEK293 cell lines were used to determine if azoffluxin treatment leads to a greater accumulation of fluorescent substrates (MFI) as determined by flow cytometry.
MDR1 (ABCB1) and MRP1 (ABCC1) was assessed using the fluorescent dyes rhodamine 6G (0.5 μg/mL) and Calcein AM (2.5 μg/mL), for each pump respectively, and the known inhibitor controls tariquidar (60 nM) and MK571 (30 μM) for each pump respectively. Listed data is shown by FIG. 12E (R6G) and FIG. 12F (Cal).

C. auris = experiment: Dose-response of other antifungal compounds with or without 50 μM azoffluxin; format: cell-based, Candida auris; settings: 48 hours, YPD
Description: FIGS. 7A and 7B illustrates that azoffluxin potentiates intracellular acting compounds against C. auris, to a similar degree as deletion of CDR1. […] Cells were then imaged on the DIC and DsRed channels at equivalent exposure times as those in FIG. 5A. FIG. 7B depicts a dose response assays conducted with a C. auris parental strain in the absence and presence of 50 μM azoffluxin where indicated, as well as with a strain with the efflux pump gene CDR1 deleted. Indicated compounds were titered in a two-fold dilution on the x-axis. Growth was measured after 48 hours in YPD using OD600 and normalized to a no drug control well (see color bar).
Compound potency was assessed alone by dose response assays or in combination with another compound by dose-response matrixes in 96-well plates, or 384-well, flat-bottom, microtiter plates (Corning) as previously described. Plates were incubated at 30° C. for the indicated time period. Growth was quantified by measuring OD600 and corrected for medium background. All strains were assessed in biological duplicate experiments with technical duplicates. Growth was normalized to untreated controls and plotted as a heat map using Java TreeView 1.1.6r4. For dose-response matrixes fractional inhibitory concentration index at 90% growth inhibition (FICI90) was calculated as previously described. […]

[1] = test system: C. auris in co-culture with 293T cells; experiment: Co-culture of luciferase-expressing 293T cells with C. auris; format: cell-based, Candida auris; settings: azoffluxin and low fluconazole, 48 hours
Description: FIG. 10A depicts mammalian embryonic kidney (293T) cells expressing luciferase used to quantify mammalian cell growth in co-culture. Mammalian cells were seeded in 384-well plates in DMEM medium at 5×10^5 cells/mL overnight. After 24 hours the indicated concentration of compound (⋅ indicates combo treatment concentrations) was added along with 2.5×10^3 cells/mL of C. auris. Co-cultures were incubated for 48 hours at 37° C. and then the luminescence was measured as an output of mammalian cell growth. Error represents standard deviation between technical quadruplicates, (***) indicates a p-value<0.001 between 293T cells alone and co-culture growth for each condition. […] FIG. 10C depicts checkerboard assays performed as described in FIG. 2B with C. auris Clade IV isolate B11801. Relative growth was measured after 24 hours using OD600 and normalized to no-drug control wells (see color bar). The FICI calculated for each checkerboard is shown in the top right of each plot, with values<0.5 indicating synergy. FIG. 10D depicts kidney fungal burden (CFU) in mice from each treatment group (n=3) that had been infected with C. auris B11801. […] The significance of differences between combination treatment and treatment with each compound alone was determined by two-tailed unpaired student t-test, (***) p-value<0.001. […]

[2] = test system: HEK293 cancer cells that overexpress the efflux pump MDR1; experiment: Doxorubicin cytotoxicity with azoffluxin; format: cell-based; settings: dose response and single concentration
Source text: Dose response (FIG. 23A) and single concentration (FIG. 23B).

T1 sequence (P08183 whole entry): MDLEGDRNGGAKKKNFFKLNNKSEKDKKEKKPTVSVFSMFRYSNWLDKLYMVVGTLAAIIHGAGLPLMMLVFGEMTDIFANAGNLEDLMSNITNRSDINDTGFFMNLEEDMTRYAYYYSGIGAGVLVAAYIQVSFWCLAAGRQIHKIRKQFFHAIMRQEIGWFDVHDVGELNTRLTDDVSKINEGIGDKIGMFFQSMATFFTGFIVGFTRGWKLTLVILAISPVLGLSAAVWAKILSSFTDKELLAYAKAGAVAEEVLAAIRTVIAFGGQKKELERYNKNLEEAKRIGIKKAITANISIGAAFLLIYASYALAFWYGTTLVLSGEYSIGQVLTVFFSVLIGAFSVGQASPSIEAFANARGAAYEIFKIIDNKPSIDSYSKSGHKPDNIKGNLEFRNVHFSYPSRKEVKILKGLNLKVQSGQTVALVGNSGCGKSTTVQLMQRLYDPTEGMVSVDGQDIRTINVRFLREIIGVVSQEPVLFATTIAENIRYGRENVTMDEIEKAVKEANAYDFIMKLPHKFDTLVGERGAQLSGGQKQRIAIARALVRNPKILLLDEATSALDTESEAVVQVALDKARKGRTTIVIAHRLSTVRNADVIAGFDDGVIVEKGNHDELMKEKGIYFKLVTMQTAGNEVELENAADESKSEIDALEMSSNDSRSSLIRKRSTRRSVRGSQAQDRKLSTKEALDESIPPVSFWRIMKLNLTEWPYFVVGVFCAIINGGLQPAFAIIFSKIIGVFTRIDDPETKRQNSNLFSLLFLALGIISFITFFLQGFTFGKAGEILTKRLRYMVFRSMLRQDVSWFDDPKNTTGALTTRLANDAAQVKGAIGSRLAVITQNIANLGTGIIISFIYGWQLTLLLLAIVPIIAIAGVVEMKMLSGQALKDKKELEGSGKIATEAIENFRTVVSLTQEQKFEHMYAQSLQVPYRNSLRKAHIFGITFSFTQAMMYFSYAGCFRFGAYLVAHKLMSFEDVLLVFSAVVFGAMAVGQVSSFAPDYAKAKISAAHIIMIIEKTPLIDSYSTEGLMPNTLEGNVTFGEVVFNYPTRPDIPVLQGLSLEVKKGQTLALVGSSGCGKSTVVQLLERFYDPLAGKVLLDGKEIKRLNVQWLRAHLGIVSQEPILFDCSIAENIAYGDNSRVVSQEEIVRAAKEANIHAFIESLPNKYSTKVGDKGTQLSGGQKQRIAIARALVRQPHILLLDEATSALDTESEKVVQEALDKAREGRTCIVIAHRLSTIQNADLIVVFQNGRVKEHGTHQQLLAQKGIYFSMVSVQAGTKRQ

C=C(C)C[C@@H](O)COc1cc2c(cc1C1(c3cc4c(cc3OC[C@H](O)CC(=C)C)OCO4)C(=O)Nc3cc(F)ccc31)OCO2 [CMLD012336]
dye accumulation in control cDNA cells (MDR1 (ABCB1)): no effect
sensitivity to caspofungin and amphotericin B (C. auris): no impact on sensitivity
sensitization to gepinacin, cerulenin, and cycloheximide (C. auris): to the same extent as CDR1 deletion
rescue of human cells in co-culture (luminescence) [1]: dramatic rescue of the human cells
cytotoxicity of doxorubicin [2]: enhances cytotoxicity of doxorubicin
